From patent US4863899A, “Biologically active polypeptides” (priority 1987, dated 1989)
Read-outs that look alike come from different tables or passages of the source. Positions of bridges follow the written chain, without caps; N, C: chain ends. Residues, ends and D or L forms follow the SMILES beside them. No end group written: not given here.

How the values were obtained:
[1] = test system: antiserum against peptide III; experiment: Radioimmunoassay, inhibition of precipitation of 125I-peptide III; format: binding, rabbit; details: for Relative Inhibitory Activity: half-maximal inhibitory concentration relative to peptide III, standard RIA, > = highest concentration tested; for inhibition of precipitation of 125I-peptide III, in words: compared with peptide III
Protocol: Rabbits were immunized by subcutaneous injection of 1 mg of conjugate injected subcutaneously at four separate sites. Two booster injections were administered at bi-weekly intervals following the initial injection. The serum used in this study was collected eighty days after the initial injection. An immunoglobulin fraction of this serum was prepared by ammonium sulfate precipitation. The product of antibodies specific for immunizing peptide was monitored with a solid phase enzyme-linked immunoabsorbent assay.
Reactants were mixed in a final volume of 50 microliters of a solution containing: 20 mM sodium phosphate, at pH 7.4; 200 mM NaCl: 40 mM dithiothreitol; 0.1% (w:v) BSA; 0.1% (w:v) NaN3 : ^125 I-peptide III; (10^4 cpm); antiserum at a final dilution of 1/15,000; and other additions, as specified. The reaction was initiated by the addition of antiserum and continued at 23° C. for 90 minutes. An equal volume of 10% formalin-fixed Staphalococcus A (Pansorbin, Calbiochem) was then added and incubation was continued for an additional 30 minutes at 23° C. The immunoadsorbant was removed by sedimentation through a cushion of 10% (w:v) sucrose and the amount of bound ^125 I-peptide III was determined using a gamma counter. Under these conditions, approximately 25% of ^125 I-peptide was bound by antibody in the absence of competitor. The amount of bound peptide III was corrected for non-specific binding measured in the absence of antibody (less than 5% of the total) and expressed as a percentage of maximal binding. Concentrations of competitors were expressed as the amount of peptide III required to give an equivalent inhibition of precipitation.

[2] = test system: EGF-induced DNA synthesis in quiescent HFF; experiment: Cell proliferation assay, inhibition of EGF-induced mitogenesis; format: cell-based, human; details: 3H-methylthymidine incorporation in quiescent HFF induced by 1 nM EGF
Protocol: (§1) HFF cells were grown to confluence in 48-well cluster dishes in DMEM-10% FCS and brought to quiescence by starvation for 2 days in DMEM-0.5% FCS. Mitogens and peptides were incubated with cells at 37° C. for 18 hours prior to a 4 hour pulse with 1 μCi [^3 H]methyl-thymidine (NEN) and trichloroacetic acid precipitable radioactivity was determined.

[3] = test system: TGFα-induced DNA synthesis in quiescent HFF; experiment: Cell proliferation assay, inhibition of TGFα-induced mitogenesis; format: cell-based, human; details: 3H-methylthymidine incorporation in quiescent HFF induced by 1 nM TGFα
Protocol: as §1

[4] = target: T1, EGF receptors on A-431 human epidermoid carcinoma cells (Homo sapiens, UniProt P00533); experiment: Radioreceptor assay, 125I-EGF binding to cells (Example XII)
T1 construct: A-431 human epidermoid carcinoma cells or human foreskin fibroblasts (HFF); endogenous in cells; host or cells: A-431 human epidermoid carcinoma cells
Protocol: (§2) A-431 human epidermoid carcinoma cells or human foreskin fibroblasts (HFF), established from primary cultures, were grown to confluence in 24-well cluster dishes (Costar) in Dulbecco's […] (DMEM, Gibco) containing 10% fetal calf serum (FCS, Hyclone). EGF was radio-iodinated as above to between 4×10^4 and 8×10^4 cpm/ng protein. Cells were incubated at 4° C. for 60 minutes with 1 nM [^125 I]EGF in the presence of inhibitor peptides in DMEM ([…]; 20 mM Hepes) containing 0.1% BSA. Cells were washed 3× with cold buffer, lysed with 0.1 N NaOH, and cell-associated radioactivity was measured (γ-counter). Nonspecific binding assessed in the presence of a 100× excess of cold EGF was less than 5% and 10% of the specific binding for A-431 and HFF cells, respectively.

[5] = target: T2, EGF receptors on human foreskin fibroblasts (HFF) (Homo sapiens, UniProt P00533); experiment: as above
T2 construct: human foreskin fibroblasts (HFF), established from primary cultures; endogenous in cells; host or cells: human foreskin fibroblasts (HFF), primary-culture derived
Protocol: as §2

second degree burns [6] = experiment: Wound healing of second degree burns, planimetry (Example VII); format: in vivo, Yorkshire piglet; details: once a day, after 7 days
Protocol: Another experiment was performed to measure the effect of the analog of human TGF described above on the healing of second degree burns. The experimental conditions were similar to those described above. However, the following changes were made in the procedures. One Yorkshire piglet was anesthetized with Ketamine and each of 12 burns was made using the template for 11 seconds per burn. After each blister was removed, the wounds were treated once a day with one of the following:
After 7 days, the eschar was removed.

anti-KLH-peptide 1 IgG = experiment: Solid phase RIA, 125I anti-KLH-peptide 1 IgG on BSA-peptide 1; format: binding, rabbit
Protocol: TGF peptide 1 was coupled to keyhole limpet hemocyanin (KLH) or bovine serum albumin (BSA) by thiol/maleimide linkage (King et al. (1979) J. Immunol. Methods 28, pp. 201-206). Carrier-peptide complexes were purified by gel filtration. An average of 60 moles peptide/mole KLH and 20 moles peptide/mole BSA was achieved. Rabbits were immunized with the KLH-peptide 1 conjugate by multiple subcutaneous (s.c.) and intramuscular (i.m.) injections of 2 mg protein in complete Freund's adjuvant. Rabbits were boosted s.c. every two weeks with the immunogen in incomplete Freund's adjuvant. The IgG fraction of the antiserum after 5 boosts was used for immunoassays and radiolabeled using Na^125 I (NEN) and Enzymobeads (Bio-Rad) to 4×10^5 cpm/μg protein. Polyvinyl chloride 96-well plates (Costar) were coated with 200 μg/mL BSA-peptide 1 conjugate and countercoated with 10% normal rabbit serum in phosphate-buffered saline. Plates were incubated for 4 hours at 37° C. with [^125 I]anti-KLH-peptide 1 IgG (50,000 cpm/well) in the presence or absence of inhibitors, washed and individual wells were counted.

second degree burns [7] = experiment: Wound healing test on second degree burns (Example VI); format: in vivo, piglets; details: Pig 3, right side, 9 days post-burn
fetal rat long bones = experiment: Bone resorption in vitro, 45Ca release; format: cell-based
Protocol: Synthetic rat TGF was prepared as described above in Example V. Purity of the protein was confirmed by sodium dodecyl sulfate-polyacrylamide gel electrophoresis, amino acid analysis, and reverse phase high-performance liquid chromatography. The biological activity of TGF preparations and synthetic TGF was monitored by means of an EGF radioreceptor assay. (Todaro et al. (1976) Nature 264, 26.) Bone resorption was assessed by measuring the release of ^45 Ca from previously labeled fetal rat long bones. Pregnant rats at the 18th day of gestation were injected with 200 μCi of ^45 Ca. (Raisz (1975) J. Clin. Invest. 44, 103.) The mothers were killed on the 19th day of gestation, and the fetuses were removed. The mineralized shafts of the radii and ulnae were dissected free of surrounding tissue and cartilage and placed in organ culture. The bones were incubated in BGJb medium (Irvine Scientific) for 24 hours at 37° C. in a humidified atmosphere of 5 percent of CO2 and 95 percent air to allow for the exchange of loosely complexed ^45 Ca. The bones were then cultured for 48 to 120 hours in BGJb medium supplemented with 5 percent fetal calf serum (KC Biologicals) containing control or test substances. […] Statistical significance was determined with Student's t test for unpaired data.

antibody to TGF peptide = format: binding; details: 125I-labeled TGF peptide
normal rat kidney cells = format: cell-based; details: on a ng equivalent basis
[8] = A-431 cells, read-out: IC50, inhibition of 125I-EGF binding
[9] = 1 nM 125I-EGF, read-out: Binding IC50 (M) HFF

## CHSGYVGVRCEHADLLA (cysteine pairing not given here) [Peptide III]
[1]
  Relative Inhibitory Activity: 1

## CHSGYVGVRC (cysteine pairing not given here) [Peptide II]
[1]
  highest concentration without inhibition of precipitation of 125I-peptide III: > 1.1 µM
  Relative Inhibitory Activity: > 1500

## CC(=O)N[C@H]1CSSC[C@@H](C(N)=O)NC(=O)[C@H](CCCNC(=N)N)NC(=O)[C@H](C(C)C)NC(=O)CNC(=O)[C@H](C(C)C)NC(=O)[C@H](Cc2ccc(O)cc2)NC(=O)CNC(=O)[C@H](CO)NC(=O)[C@H](Cc2c[nH]cn2)NC1=O [Peptide 2] (Ac-CHSGYVGVRC-NH2; disulfide 1-10)
[2]
  IC50: 5000 nM
[3]
  IC50: 3000 nM
[4]; A-431 cells
  binding potency as % of EGF or TGF-α: approximately 0.02%
[4]; [8]
  IC50: 4e-06 M
[5]; [9]
  IC50: 2e-06 M

## hEGF: Human EGF
Second degree burns [6]; 0.1 μg/ml in Silvadene
  PERCENTAGE OF WOUND HEALED Burn A: 17 percentage
  PERCENTAGE OF WOUND HEALED Burn B: 14 percentage
Second degree burns [6]; 1 μg/ml in Silvadene
  PERCENTAGE OF WOUND HEALED Burn A: 14 percentage
  PERCENTAGE OF WOUND HEALED Burn B: 17 percentage

## Ac-Cys-His-Ser-Gly-Tyr-Val-Gly-Ala-Arg-Cys-OMe (Ac-CHSGYVGARC-OMe; disulfide 1-10 (inferred)) [Peptide 3]
[2]
  IC50: 600 nM
[3]
  IC50: 500 nM
[4]; 1 nM 125I-EGF, read-out: Binding IC50 (M) A-431
  IC50: 4e-07 M
[4]; A-431 cells
  binding potency as % of EGF or TGF-α: ~0.2%
[4]; [8]
  IC50: 4e-07 M
[5]; [9]
  IC50: 3e-07 M

## CC(C)[C@@H]1NC(=O)CNC(=O)[C@H](C(C)C)NC(=O)[C@H](Cc2ccc(O)cc2)NC(=O)CNC(=O)[C@H](CO)NC(=O)[C@H](Cc2c[nH]cn2)NC(=O)[C@@H](N)CSSC[C@@H](C(=O)O)NC(=O)[C@H](CCCNC(=N)N)NC1=O [Peptide 1] (H-CHSGYVGVRC-OH; disulfide 1-10)
[2]
  IC50: > 10000 nM
anti-KLH-peptide 1 IgG
  inhibition of antibody reaction with BSA-TGF peptide: inhibited in a concentration-dependent fashion
[3]
  IC50: > 10000 nM
[4]
  IC50: 8e-05 M
[4]; at >10^-6 M
  inhibition of 125I-EGF binding to A-431 cells, in words: partially inhibited
[5]
  IC50: 6e-05 M

## synthetic rTGF: rat TGF of the formula of Example II made by stepwise solid-phase synthesis, purified to homogeneity
[1]
  inhibition of precipitation of 125I-peptide III, in words: equally effective
Second degree burns [7]; 0.1 μg/ml in Silvadene
  approximate percentage of burn epithelialized: 90%
Second degree burns [7]; 0.5 μg/ml in Silvadene
  approximate percentage of burn epithelialized: 65%
Second degree burns [7]; 10 μg/ml in Silvadene
  approximate percentage of burn epithelialized: 90%
anti-KLH-peptide 1 IgG
  inhibition of antibody reaction with BSA-TGF peptide: slightly less
Fetal rat long bones
  bone resorption during the first 48 hours of bone culture: no significant bone resorption
  effective concentrations for bone resorption compared with EGF: about one order of magnitude less than EGF
  time required to stimulate bone resorption: at least 72 hours
Fetal rat long bones; three separate experiments (Example XIII)
  concentrations that stimulated bone resorption: greater than 2 ng EGF equivalents/ml
Fetal rat long bones; three separate experiments (Example XIV)
  concentrations that stimulated bone resorption: greater than 2 ng of EGF equivalents per milliliter
Antibody to TGF peptide
  antigen concentration for 50% displacement of antigen from antibody: 0.2-0.3 ng equivalents of EGF
Normal rat kidney cells
  colonies in soft agar: 154 colonies

## VVSHFNKCPDSHT [Peptide I]
[1]
  inhibition of precipitation of 125I-peptide III, in words: ineffective as a competitor
  Relative Inhibitory Activity: > 1500
